{"source": "PubChem BioAssay (NCI)", "assay_in_all_cases": "DTP human tumour cell line panel, 48 h", "key": {"786-0 renal": {"system": "786-0 renal"}, "A498 renal": {"system": "A498 renal"}, "A549 NSCLC": {"system": "A549 NSCLC"}, "ACHN renal": {"system": "ACHN renal"}, "CAKI-1 renal": {"system": "CAKI-1 renal"}, "CCRF-CEM leukemia": {"system": "CCRF-CEM leukemia"}, "COLO 205 colon": {"system": "COLO 205 colon"}, "DLD-1 colon": {"system": "DLD-1 colon"}, "DMS 114 small cell lung": {"system": "DMS 114 small cell lung"}, "DMS 273 small cell lung": {"system": "DMS 273 small cell lung"}, "EKVX NSCLC": {"system": "EKVX NSCLC"}, "HCT-116 colon": {"system": "HCT-116 colon"}, "HCT-15 colon": {"system": "HCT-15 colon"}, "HL-60(TB) leukemia": {"system": "HL-60(TB) leukemia"}, "HOP-62 NSCLC": {"system": "HOP-62 NSCLC"}, "HOP-92 NSCLC": {"system": "HOP-92 NSCLC"}, "HT29 colon": {"system": "HT29 colon"}, "IGROV1 ovarian": {"system": "IGROV1 ovarian"}, "KM12 colon": {"system": "KM12 colon"}, "KM20L2 colon": {"system": "KM20L2 colon"}, "LOX IMVI melanoma": {"system": "LOX IMVI melanoma"}, "LXFL 529 NSCLC": {"system": "LXFL 529 NSCLC"}, "M14 melanoma": {"system": "M14 melanoma"}, "M19-MEL melanoma": {"system": "M19-MEL melanoma"}, "MALME-3M melanoma": {"system": "MALME-3M melanoma"}, "MOLT-4 leukemia": {"system": "MOLT-4 leukemia"}, "NCI-H226 lung": {"system": "NCI-H226 lung"}, "NCI-H23 lung": {"system": "NCI-H23 lung"}, "NCI-H460 lung": {"system": "NCI-H460 lung"}, "NCI-H522 lung": {"system": "NCI-H522 lung"}, "OVCAR-3 ovarian": {"system": "OVCAR-3 ovarian"}, "OVCAR-4 ovarian": {"system": "OVCAR-4 ovarian"}, "OVCAR-5 ovarian": {"system": "OVCAR-5 ovarian"}, "OVCAR-8 ovarian": {"system": "OVCAR-8 ovarian"}, "RPMI-8226 leukemia": {"system": "RPMI-8226 leukemia"}, "SF-268 CNS": {"system": "SF-268 CNS"}, "SF-295 CNS": {"system": "SF-295 CNS"}, "SF-539 CNS": {"system": "SF-539 CNS"}, "SK-MEL-2 melanoma": {"system": "SK-MEL-2 melanoma"}, "SK-MEL-28 melanoma": {"system": "SK-MEL-28 melanoma"}, "SK-MEL-5 melanoma": {"system": "SK-MEL-5 melanoma"}, "SK-OV-3 ovarian": {"system": "SK-OV-3 ovarian"}, "SN12C renal": {"system": "SN12C renal"}, "SNB-19 CNS": {"system": "SNB-19 CNS"}, "SNB-75 CNS": {"system": "SNB-75 CNS"}, "SNB-78 CNS": {"system": "SNB-78 CNS"}, "SR leukemia": {"system": "SR leukemia"}, "SW-620 colon": {"system": "SW-620 colon"}, "TK-10 renal": {"system": "TK-10 renal"}, "U251 CNS": {"system": "U251 CNS"}, "UACC-257 melanoma": {"system": "UACC-257 melanoma"}, "UACC-62 melanoma": {"system": "UACC-62 melanoma"}, "UO-31 renal": {"system": "UO-31 renal"}, "XF 498 CNS": {"system": "XF 498 CNS"}}, "note": "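Protocol summary: plate cells (96-well), add compound at 5 concentrations, incubate 48 h, interpolate endpoints linearly. TGI denotes the concentration required for complete inhibition of growth.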"}
{"compound": "CC(C)C(Sc1nc(-c2ccccc2)c(-c2ccccc2)[nH]1)C(=O)N/N=C/c1ccc([N+](=O)[O-])cc1", "note": "(centres undefined)", "values": [{"measurement": "TGI", "setting": "786-0 renal", "value": 32.1, "unit": "µM"}, {"measurement": "TGI", "setting": "A498 renal", "value": 42.6, "unit": "µM"}, {"measurement": "TGI", "setting": "A549 NSCLC", "value": 66.3, "unit": "µM"}, {"measurement": "TGI", "setting": "ACHN renal", "value": "> 100", "unit": "µM"}, {"measurement": "TGI", "setting": "CAKI-1 renal", "value": 47.9, "unit": "µM"}, {"measurement": "TGI", "setting": "CCRF-CEM leukemia", "value": 28.2, "unit": "µM"}, {"measurement": "TGI", "setting": "COLO 205 colon", "value": 24.9, "unit": "µM"}, {"measurement": "TGI", "setting": "DLD-1 colon", "value": "> 100", "unit": "µM"}, {"measurement": "TGI", "setting": "DMS 114 small cell lung", "value": 68.2, "unit": "µM"}, {"measurement": "TGI", "setting": "DMS 273 small cell lung", "value": 27.5, "unit": "µM"}, {"measurement": "TGI", "setting": "EKVX NSCLC", "value": 65.6, "unit": "µM"}, {"measurement": "TGI", "setting": "HCT-116 colon", "value": 28, "unit": "µM"}, {"measurement": "TGI", "setting": "HCT-15 colon", "value": 36.5, "unit": "µM"}, {"measurement": "TGI", "setting": "HL-60(TB) leukemia", "value": 33.5, "unit": "µM"}, {"measurement": "TGI", "setting": "HOP-62 NSCLC", "value": 37.8, "unit": "µM"}, {"measurement": "TGI", "setting": "HOP-92 NSCLC", "value": 35.4, "unit": "µM"}, {"measurement": "TGI", "setting": "HT29 colon", "value": 23.2, "unit": "µM"}, {"measurement": "TGI", "setting": "IGROV1 ovarian", "value": 42.2, "unit": "µM"}, {"measurement": "TGI", "setting": "KM12 colon", "value": 24.5, "unit": "µM"}, {"measurement": "TGI", "setting": "KM20L2 colon", "value": 32.9, "unit": "µM"}, {"measurement": "TGI", "setting": "LOX IMVI melanoma", "value": 26, "unit": "µM"}, {"measurement": "TGI", "setting": "LXFL 529 NSCLC", "value": 33.8, "unit": "µM"}, {"measurement": "TGI", "setting": "M14 melanoma", "value": 21.6, "unit": "µM"}, {"measurement": "TGI", "setting": "M19-MEL melanoma", "value": 23.8, "unit": "µM"}, {"measurement": "TGI", "setting": "MALME-3M melanoma", "value": 30, "unit": "µM"}, {"measurement": "TGI", "setting": "MOLT-4 leukemia", "value": 10.3, "unit": "µM"}, {"measurement": "TGI", "setting": "NCI-H226 lung", "value": 40.3, "unit": "µM"}, {"measurement": "TGI", "setting": "NCI-H23 lung", "value": 55.6, "unit": "µM"}, {"measurement": "TGI", "setting": "NCI-H460 lung", "value": 34.1, "unit": "µM"}, {"measurement": "TGI", "setting": "NCI-H522 lung", "value": 32.4, "unit": "µM"}, {"measurement": "TGI", "setting": "OVCAR-3 ovarian", "value": 21.3, "unit": "µM"}, {"measurement": "TGI", "setting": "OVCAR-4 ovarian", "value": 80.5, "unit": "µM"}, {"measurement": "TGI", "setting": "OVCAR-5 ovarian", "value": 44.8, "unit": "µM"}, {"measurement": "TGI", "setting": "OVCAR-8 ovarian", "value": "> 100", "unit": "µM"}, {"measurement": "TGI", "setting": "RPMI-8226 leukemia", "value": 47.6, "unit": "µM"}, {"measurement": "TGI", "setting": "SF-268 CNS", "value": 40, "unit": "µM"}, {"measurement": "TGI", "setting": "SF-295 CNS", "value": 33.9, "unit": "µM"}, {"measurement": "TGI", "setting": "SF-539 CNS", "value": 36.5, "unit": "µM"}, {"measurement": "TGI", "setting": "SK-MEL-2 melanoma", "value": 29.4, "unit": "µM"}, {"measurement": "TGI", "setting": "SK-MEL-28 melanoma", "value": 30.6, "unit": "µM"}, {"measurement": "TGI", "setting": "SK-MEL-5 melanoma", "value": 21.3, "unit": "µM"}, {"measurement": "TGI", "setting": "SK-OV-3 ovarian", "value": 48.2, "unit": "µM"}, {"measurement": "TGI", "setting": "SN12C renal", "value": 25.9, "unit": "µM"}, {"measurement": "TGI", "setting": "SNB-19 CNS", "value": 41.7, "unit": "µM"}, {"measurement": "TGI", "setting": "SNB-75 CNS", "value": 42.3, "unit": "µM"}, {"measurement": "TGI", "setting": "SNB-78 CNS", "value": "> 100", "unit": "µM"}, {"measurement": "TGI", "setting": "SR leukemia", "value": 33.6, "unit": "µM"}, {"measurement": "TGI", "setting": "SW-620 colon", "value": 37.2, "unit": "µM"}, {"measurement": "TGI", "setting": "TK-10 renal", "value": "> 100", "unit": "µM"}, {"measurement": "TGI", "setting": "U251 CNS", "value": 29.8, "unit": "µM"}, {"measurement": "TGI", "setting": "UACC-257 melanoma", "value": 28.8, "unit": "µM"}, {"measurement": "TGI", "setting": "UACC-62 melanoma", "value": 31.5, "unit": "µM"}, {"measurement": "TGI", "setting": "UO-31 renal", "value": 26.5, "unit": "µM"}, {"measurement": "TGI", "setting": "XF 498 CNS", "value": 41, "unit": "µM"}]}
